Assay results: US20170239323A1, “ORITAVANCIN FORMULATIONS” (The Medicines Company, priority 2016, published 2017)

Experiments:
[1] = Reconstituted oritavancin/HPCD solution diluted in 0.9% saline: pH and observation for precipitation; format: physicochemical; settings: for pH: RT
[2] = Dilution in Hank's Balanced Salt Solution (HBSS, plasma surrogate): pH and visual observations; format: physicochemical; settings: for time at which oritavancin started to fall out of solution: repeat with material 24 hours after reconstitution
Procedure: Reconstituting Orbactiv 400 mg (Oritavancin) in 20% w/v aqueous HPCD then diluting in Hank's Balanced Salt Solution (HBSS). 2.641 g of HPCD was dissolved in 13.205 mL of water to make a 20% w/v solution (pH=6.70). Eight (8) mL of the 20% w/v solution was added to a 400 mg vial of Orbactiv for a target oritavancin concentration of 50 mg/mL. […] A 1.5 mL aliquot of 50 mg/mL was removed from the vial and placed in a small glass vial and pH measured. Diluted 2 mL of 50 mg/mL oritavancin solution in 8 mL of HBSS. Visual observations and pH were recorded. (Table 12).
HBSS was used as a plasma surrogate in this experiment. Oritavancin at either 5 or 10 mg/mL precipitated from solution at 2 hours in HBSS. This experiment was repeated with the same material 24 hours later and observed over shorter time intervals. Diluted […] in a small glass vial to make a 10 mg/mL solution. Diluted […] in a small glass vial to make a 5 mg/mL solution. Solutions were observed and pH was tested every 0.25 hrs. (Table 14, Table 15).

[3] = 20% w/v HPCD reconstitution diluted to 5 mg/mL in 0.9% saline, rechecked one month later
[4] = 50% HPCD reconstitution diluted to 5 mg/mL in 0.9% saline, rechecked one month later
[5] = Table 12: 20% w/v HPCD reconstitution diluted in HBSS: oritavancin 10 mg/mL, HPCD 4% w/v, 0 hr
[6] = Table 12: 20% w/v HPCD reconstitution diluted in HBSS: oritavancin 10 mg/mL, HPCD 4% w/v, 0.5 hr
[7] = Table 12: 20% w/v HPCD reconstitution diluted in HBSS: oritavancin 10 mg/mL, HPCD 4% w/v, 1 hr
[8] = Table 12: 20% w/v HPCD reconstitution diluted in HBSS: oritavancin 10 mg/mL, HPCD 4% w/v, 2 hr
[9] = Table 14: repeat with 24-hour-old 20% w/v HPCD reconstitution diluted in HBSS: oritavancin 10 mg/mL, HPCD 2% w/v, 0 hr
[10] = Table 14: repeat with 24-hour-old 20% w/v HPCD reconstitution diluted in HBSS: oritavancin 10 mg/mL, HPCD 2% w/v, 0.25 hr
[11] = Table 15: 24-hour-old 20% w/v HPCD reconstitution diluted in HBSS: oritavancin 5 mg/mL, HPCD 2% w/v, 0 hr
[12] = Table 15: 24-hour-old 20% w/v HPCD reconstitution diluted in HBSS: oritavancin 5 mg/mL, HPCD 2% w/v, 0.25 hr
[13] = Table 15: 24-hour-old 20% w/v HPCD reconstitution diluted in HBSS: oritavancin 5 mg/mL, HPCD 2% w/v, 0.5 hr
[14] = Table 15: 24-hour-old 20% w/v HPCD reconstitution diluted in HBSS: oritavancin 5 mg/mL, HPCD 2% w/v, 0.75 hr
[15] = Table 15: 24-hour-old 20% w/v HPCD reconstitution diluted in HBSS: oritavancin 5 mg/mL, HPCD 2% w/v, 1 hr

CN[C@H](CC(C)C)C(=O)N[C@H]1C(=O)N[C@@H](CC(N)=O)C(=O)N[C@H]2C(=O)N[C@H]3C(=O)N[C@H](C(=O)N[C@H](C(=O)O)c4cc(O)cc(O)c4-c4cc3ccc4O)[C@H](O[C@H]3C[C@](C)(N)[C@@H](O)[C@H](C)O3)c3ccc(c(Cl)c3)Oc3cc2cc(c3O[C@@H]2O[C@H](CO)[C@@H](O)[C@H](O)[C@H]2O[C@H]2C[C@](C)(NCc3ccc(-c4ccc(Cl)cc4)cc3)[C@@H](O)[C@H](C)O2)Oc2ccc(cc2Cl)[C@H]1O [Oritavancin]
pH ([1]; 20% w/v HPCD reconstitution diluted in 0.9% saline: oritavancin 5 mg/mL, HPCD 2% w/v, 0 hr): 4.17
pH ([1]; 20% w/v HPCD reconstitution diluted in 0.9% saline: oritavancin 5 mg/mL, HPCD 2% w/v, 0.08 hr): 4.17
pH ([1]; 20% w/v HPCD reconstitution diluted in 0.9% saline: oritavancin 5 mg/mL, HPCD 2% w/v, 0.5 hr): 4.17
pH ([1]; 20% w/v HPCD reconstitution diluted in 0.9% saline: oritavancin 5 mg/mL, HPCD 2% w/v, 1 hr): 4.17
pH ([1]; 20% w/v HPCD reconstitution diluted in 0.9% saline: oritavancin 5 mg/mL, HPCD 2% w/v, 24 hr): 4.17
pH ([1]; 20% w/v HPCD reconstitution diluted in 0.9% saline: oritavancin 5 mg/mL, HPCD 2% w/v, 720 hr): 4.32
appearance / precipitation ([1]; 20% w/v HPCD reconstitution diluted to 5 mg/mL in 0.9% saline, for 24 hours): remained clear and colorless without any precipitation
appearance [1, 3]: clear and colorless
pH change [1, 3]: increased slightly
appearance / precipitation ([1]; 20% w/v HPCD reconstitution diluted to 6 mg/mL in 0.9% saline): remained clear and colorless without any visible precipitation
time for which no precipitation was observed ([1]; 20% w/v HPCD reconstitution pH adjusted (up to 7), diluted to 5 mg/mL in 0.9% saline): at least 12 hours
appearance ([1]; 20% w/v HPCD reconstitution, diluted to 5 mg/mL in 0.9% saline, pH 6.5 and above, for 24 hours): maintained clear and colorless
appearance / precipitation ([1]; 50% HPCD reconstitution diluted to 5 mg/mL in 0.9% saline, for 24 hours): remained clear and colorless without any precipitation
appearance [1, 4]: clear and colorless
pH change [1, 4]: increased slightly
pH ([1]; 50% w/v HPCD reconstitution diluted in 0.9% saline: oritavancin 5 mg/mL, HPCD 5% w/v, 0 hr): 4.14
pH ([1]; 50% w/v HPCD reconstitution diluted in 0.9% saline: oritavancin 5 mg/mL, HPCD 5% w/v, 0.08 hr): 4.14
pH ([1]; 50% w/v HPCD reconstitution diluted in 0.9% saline: oritavancin 5 mg/mL, HPCD 5% w/v, 0.5 hr): 4.14
pH ([1]; 50% w/v HPCD reconstitution diluted in 0.9% saline: oritavancin 5 mg/mL, HPCD 5% w/v, 1 hr): 4.14
pH ([1]; 50% w/v HPCD reconstitution diluted in 0.9% saline: oritavancin 5 mg/mL, HPCD 5% w/v, 24 hr): 4.15
pH ([1]; 50% w/v HPCD reconstitution diluted in 0.9% saline: oritavancin 5 mg/mL, HPCD 5% w/v, 720 hr): 4.26
time for which no precipitation was observed ([1]; 50% w/v HPCD reconstitution pH adjusted (up to 6.3), diluted to 5 mg/mL in 0.9% saline): at least 1 hour
time for which no precipitation was observed ([1]; 50% w/v HPCD reconstitution pH adjusted (up to 7), diluted to 5 mg/mL in 0.9% saline): at least 12 hours
appearance ([1]; 50% w/v HPCD reconstitution pH adjusted, diluted to 5 mg/mL in 0.9% saline, at 24 hours): Some discoloration
appearance ([1]; pH 5.7): Some discoloration
time for which solution maintains clarity ([1]; pH adjusted to pH 7 in saline using NaOH): at least 12 hours
stability in solution ([1]; reconstituted in 20% or 50% w/v HPCD, diluted into saline at 5 mg/mL): does not fall out of solution for at least one month
time at which oritavancin precipitated from solution ([2]; 5 mg/mL in HBSS (20% w/v HPCD reconstitution)): 2 h
time at which oritavancin started to fall out of solution ([2]; 5 mg/mL in HBSS): ~1.5 h
time at which oritavancin precipitated from solution ([2]; 10 mg/mL in HBSS (20% w/v HPCD reconstitution)): 2 h
time at which oritavancin started to fall out of solution ([2]; 10 mg/mL in HBSS): 0.5 h
time for which oritavancin remains in solution ([2]; 20% w/v aqueous HPCD reconstitution diluted into HBSS at 5 mg/mL): at least 1 hour
Observations [2, 5]: Clear, colorless solution
pH [2, 5]: 5.83
Observations [2, 6]: Clear, colorless solution
pH [2, 6]: 5.86
Observations [2, 7]: Clear, colorless solution
pH [2, 7]: 5.87
Observations [2, 8]: Flocculent white precipitate
pH [2, 8]: 5.92
Observations [2, 9]: Clear, colorless solution
pH [2, 9]: 6.19
Observations [2, 10]: Clear, colorless solution
pH [2, 10]: 6.21
pH ([2]; Table 14: repeat with 24-hour-old 20% w/v HPCD reconstitution diluted in HBSS: oritavancin 10 mg/mL, HPCD 2% w/v, 0.5 hr): 6.30
pH ([2]; Table 14: repeat with 24-hour-old 20% w/v HPCD reconstitution diluted in HBSS: oritavancin 10 mg/mL, HPCD 2% w/v, 0.75 hr): 6.33
pH ([2]; Table 14: repeat with 24-hour-old 20% w/v HPCD reconstitution diluted in HBSS: oritavancin 10 mg/mL, HPCD 2% w/v, 1 hr): 6.38
Observations [2, 11]: Clear, colorless solution
pH [2, 11]: 6.39
Observations [2, 12]: Clear, colorless solution
pH [2, 12]: 6.47
Observations [2, 13]: Clear, colorless solution
pH [2, 13]: 6.50
Observations [2, 14]: Clear, colorless solution
pH [2, 14]: 6.59
Observations [2, 15]: Clear, colorless solution
pH [2, 15]: 6.61
pH ([2]; Table 15: 24-hour-old 20% w/v HPCD reconstitution diluted in HBSS: oritavancin 5 mg/mL, HPCD 2% w/v, 1.25 hr): 6.63
pH ([2]; Table 15: 24-hour-old 20% w/v HPCD reconstitution diluted in HBSS: oritavancin 5 mg/mL, HPCD 2% w/v, 1.5 hr): 6.71
pH ([2]; Table 15: 24-hour-old 20% w/v HPCD reconstitution diluted in HBSS: oritavancin 5 mg/mL, HPCD 2% w/v, 1.75 hr): 6.76
